Source: article PMC11844072, “Novel 5,6-dichlorobenzimidazole derivatives as dual BRAFWT and BRAFV600E inhibitors: design, synthesis, anti-cancer activity and molecular dynamics simulations” (BMC Chemistry, 2025)

Assays:
Experiment in all cases: NCI 60 single concentration growth inhibition
Type in all cases: cell-based, human
[1] = tested on: UACC-62; conditions: Homo sapiens, UACC-62, Melanoma, read-out: GI%
Protocol: (§1) The synthesized dichlorobenzimidazoles 10a–p were assayed for their influence on divers cancer cell lines according to the method presented in the Additional file A.
(§2) 5. Screening of cytotoxic activity against a panel of sixty human tumor cell lines
(§3) The selected compounds by NCI were evaluated for their anticancer activity in a two-stage process. First, these compounds were screened against the full NCI 60 cell lines panel at a single high dose of 10 µM. Then, the output from the single dose screen is reported as a mean graph. […]
(§4) at five different minimal concentrations.
(§5) Assay protocol. The human tumor cell lines of the cancer screening panel are grown in RPMI 1640 medium containing 5% fetal bovine serum and 2 mM L-glutamine. For a typical screening experiment, cells are inoculated into 96 well microtiter plates in 100 µL at plating densities ranging from 5000 to 40,000 cells/well depending on the doubling time of individual cell lines. After cell inoculation, the microtiter plates are incubated at 37 °C, 5% CO 2, 95% air and 100% relative humidity for 24 h prior to addition of the experimental drugs.
(§6) After 24 h, two plates of each cell line are fixed in situ with TCA, to represent a measurement of the cell population for each cell line at the time of drug addition (Tz). The experimental drugs are solubilized in dimethyl sulfoxide at 400-fold the desired final maximum test concentration and stored frozen prior to use. At the time of drug addition, an aliquot of frozen concentrate is thawed and diluted to twice the desired final maximum test concentration with complete medium containing 50 µg/mL gentamicin. Additional four, 10-fold or ½ log serial dilutions are made to provide a total of five drug concentrations plus control.
(§7) Aliquots of […] of these different drug dilutions are added to the appropriate microtiter wells already containing […] of medium, resulting in the required final drug concentrations.
(§8) Following drug addition, the plates are incubated for an additional 48 h at 37 °C, 5% CO 2, 95% air, and 100% relative humidity. For adherent cells, the assay is terminated by the addition of cold TCA.
(§9) Cells are fixed in situ by the gentle addition of 50 µL of cold 50% (w/v) TCA (final concentration, 10% TCA) and incubated for 60 min at 4 °C. The supernatant is discarded, and the plates are washed five times with tap water and air dried. Sulforhodamine B (SRB) solution ([…]) at 0.4% (w/v) in 1% acetic acid is added to each well, and plates are incubated for 10 min at room temperature. After staining, unbound dye is removed by washing five times with 1% acetic acid and the plates are air dried. Bound stain is subsequently solubilized with 10 mM trizma base, and the absorbance is read on an automated plate reader at a wavelength of 515 nm. For suspension cells, the methodology is […]
(§10) the same except that the assay is terminated by fixing settled cells at the bottom of the wells by gently adding 50 µl of 80% TCA (final concentration, 16% TCA). Using the seven absorbance measurements [time zero, (Tz), control growth, (C), and test growth in the presence of drug at the five concentration levels (Ti)], the percentage growth is calculated at each of the drug concentrations […]
(§11) Percentage growth inhibition is calculated as: [(Ti Tz)/(C–Tz)] x 100 for concentrations for which Ti>/=Tz and [(Ti-Tz)/Tz] x 100 for concentrations for which Ti < Tz.
(§12) Three dose response parameters are calculated for each experimental agent. Growth […]
(§13) concentration resulting in a 50% reduction in the net protein increase (as measured by SRB staining) in control cells during the drug incubation. The drug concentration resulting in total growth inhibition (TGI) is calculated from Ti = Tz. […]
(§14) reduction in the measured protein at the end of the drug treatment as compared to that at the beginning) indicating a net loss of cells following treatment is calculated from [(Ti–Tz)/Tz] x 100 =
(§15) _50. Values are calculated for each of these three parameters if the level of activity is reached; […]

[2] = tested on: EKVX; conditions: Homo sapiens, Non-small cell lung cancer, read-out: GI%
Protocol: as §1, §2, §3, §4, §5, §6, §7, §8, §9, §10, §11, §12, §13, §14, §15

[3] = tested on: ACHN; conditions: Homo sapiens, Renal cancer, read-out: GI%
Protocol: as §1, §2, §3, §4, §5, §6, §7, §8, §9, §10, §11, §12, §13, §14, §15

[4] = tested on: 786-0; conditions: Homo sapiens, 786-0, Renal cancer, read-out: GI%
Protocol: as §1, §2, §3, §4, §5, §6, §7, §8, §9, §10, §11, §12, §13, §14, §15

[5] = tested on: A498; conditions: Homo sapiens, A498, Renal cancer, read-out: GI%
Protocol: as §1, §2, §3, §4, §5, §6, §7, §8, §9, §10, §11, §12, §13, §14, §15

[6] = tested on: CCRF-CEM; conditions: Homo sapiens, Leukemia, read-out: GI%
Protocol: as §1, §2, §3, §4, §5, §6, §7, §8, §9, §10, §11, §12, §13, §14, §15

[7] = tested on: MDA-MB-231/ATCC; conditions: Homo sapiens, Breast cancer, read-out: GI%
Protocol: as §1, §2, §3, §4, §5, §6, §7, §8, §9, §10, §11, §12, §13, §14, §15

[8] = tested on: OVCAR-8; conditions: Homo sapiens, OVCAR-8, Ovarian cancer, read-out: GI%
Protocol: as §1, §2, §3, §4, §5, §6, §7, §8, §9, §10, §11, §12, §13, §14, §15

[9] = tested on: T-47D; conditions: Homo sapiens, T47D, Breast cancer, read-out: GI%
Protocol: as §1, §2, §3, §4, §5, §6, §7, §8, §9, §10, §11, §12, §13, §14, §15

[10] = tested on: MCF7; conditions: Homo sapiens, MCF7, Breast cancer, read-out: GI%
Protocol: as §1, §2, §3, §4, §5, §6, §7, §8, §9, §10, §11, §12, §13, §14, §15

[11] = tested on: HS 578T; conditions: Homo sapiens, Breast cancer, read-out: GI%
Protocol: as §1, §2, §3, §4, §5, §6, §7, §8, §9, §10, §11, §12, §13, §14, §15

[12] = tested on: HOP-62; conditions: Homo sapiens, HOP-62, Non-small cell lung cancer, read-out: GI%
Protocol: as §1, §2, §3, §4, §5, §6, §7, §8, §9, §10, §11, §12, §13, §14, §15

[13] = tested on: NCI-H23; conditions: Homo sapiens, NCI-H23, Non-small cell lung cancer, read-out: GI%
Protocol: as §1, §2, §3, §4, §5, §6, §7, §8, §9, §10, §11, §12, §13, §14, §15

[14] = tested on: SN12C; conditions: Homo sapiens, Renal cancer, read-out: GI%
Protocol: as §1, §2, §3, §4, §5, §6, §7, §8, §9, §10, §11, §12, §13, §14, §15

[15] = tested on: BT-549; conditions: Homo sapiens, BT-549, Breast cancer, read-out: GI%
Protocol: as §1, §2, §3, §4, §5, §6, §7, §8, §9, §10, §11, §12, §13, §14, §15

[16] = tested on: SF-539; conditions: Homo sapiens, SF-539, CNS cancer, read-out: GI%
Protocol: as §1, §2, §3, §4, §5, §6, §7, §8, §9, §10, §11, §12, §13, §14, §15

[17] = tested on: HCT-116; conditions: Homo sapiens, HCT-116, Colon cancer, read-out: GI%
Protocol: as §1, §2, §3, §4, §5, §6, §7, §8, §9, §10, §11, §12, §13, §14, §15

[18] = tested on: SK-MEL-28; conditions: Homo sapiens, SK-MEL-28, Melanoma, read-out: GI%
Protocol: as §1, §2, §3, §4, §5, §6, §7, §8, §9, §10, §11, §12, §13, §14, §15

[19] = tested on: CAKI-1; conditions: Homo sapiens, CAKI-1, Renal cancer, read-out: GI%
Protocol: as §1, §2, §3, §4, §5, §6, §7, §8, §9, §10, §11, §12, §13, §14, §15

[20] = tested on: UACC-257; conditions: Homo sapiens, UACC-257, Melanoma, read-out: GI%
Protocol: as §1, §2, §3, §4, §5, §6, §7, §8, §9, §10, §11, §12, §13, §14, §15

[21] = tested on: HL-60(TB); conditions: Homo sapiens, Leukemia, read-out: GI%
Protocol: as §1, §2, §3, §4, §5, §6, §7, §8, §9, §10, §11, §12, §13, §14, §15

[22] = tested on: OVCAR-5; conditions: Homo sapiens, OVCAR-5, Ovarian cancer, read-out: GI%
Protocol: as §1, §2, §3, §4, §5, §6, §7, §8, §9, §10, §11, §12, §13, §14, §15

SMILES	inhibition at 10 µM [1] [%]	inhibition at 10 µM [2] [%]	inhibition at 10 µM [3] [%]	inhibition at 10 µM [4] [%]	inhibition at 10 µM [5] [%]	inhibition at 10 µM [6] [%]	inhibition at 10 µM [7] [%]	inhibition at 10 µM [8] [%]	inhibition at 10 µM [9] [%]	inhibition at 10 µM [10] [%]	inhibition at 10 µM [11] [%]	inhibition at 10 µM [12] [%]	inhibition at 10 µM [13] [%]	inhibition at 10 µM [14] [%]	inhibition at 10 µM [15] [%]	inhibition at 10 µM [16] [%]	inhibition at 10 µM [17] [%]	inhibition at 10 µM [18] [%]	inhibition at 10 µM [19] [%]	inhibition at 10 µM [20] [%]	other results
CCOC(=O)C(C)Oc1ccc(C=NNC(=O)Cn2c(-c3ccc(OC)cc3)nc3cc(Cl)c(Cl)cc32)cc1 (centres unmarked) [Compound 10j, Ethyl-2-(4-((2-(2-(5,6-dichloro-2-(4-methoxyphenyl)-1H-benzo[d]imidazol-1-yl)acetyl) hydrazono)methyl)phenoxy)propanoate]	20.1	21.7	18	11.3	< 5	25.8	17.2	20.7	72.8	39	< 5	< 5	20.8	51.9	11.8	< 5	32.3	< 5	9.1	< 5	inhibition at 10 µM [21]: 6.19%; inhibition at 10 µM [22]: < 5%
COc1ccc(-c2nc3cc(Cl)c(Cl)cc3n2CC(=O)NN=Cc2ccc(OCC(=O)O)cc2)cc1 [Compound 10f, 2-(4-((2-(2-(5,6-Dichloro-2-(4-methoxyphenyl)-1H-benzo[d]imidazol-1-yl)acetyl)hydrazono)methyl)phenoxy)acetic acid]	< 5	5.96	< 5	< 5	< 5	< 5	< 5	< 5	< 5	18.9	< 5	< 5	< 5	< 5	< 5	10.8	< 5	< 5	15	< 5	inhibition at 10 µM [21]: < 5%; inhibition at 10 µM [22]: < 5%
